Results from US20230149510A1, “METHOD FOR ALLEVIATING ARTHRITIS USING EPIDERMAL GROWTH FACTOR” (Lovin BioMed Co., Ltd., priority 2021, published 2023).

Experiments:
[1] = system: TNF-α, IL-1β, IL-6, IL-17A, IFN-γ and IL-8 in sole tissue, CII-induced RA; test: Inflammatory markers in sole tissue (ELISA), collagen-induced RA; format: in vivo, DBA/1 mice; settings: mouse sole tissue
Procedure: 2 mg/mL of a Chick type II collagen (CII) solution (Chondrex Inc., Cat. No. 20012) (in 10 mM acetic acid) was mixed with complete Freund's adjuvant (Sigma Aldrich, Cat. No. F5881-10ML) at a ratio of 1:1 (v/v), so as to obtain a first CII emulsion. 2 mg/mL of a Chick type CII solution was mixed with incomplete Freund's adjuvant (ChemCruzx, Cat. No. sc-24648) at a ratio of 1:1 (v/v), so as to obtain a second CII emulsion.
The female DBA/1 mice were divided into five groups, including one normal control group, one pathological control group, one comparative group, and two experimental groups (i.e., experimental groups 1 to 2) (n=6 mice in each group). 200 μL of the first CII emulsion was injected subcutaneously into the tail of the respective mouse of the pathological control group, the comparative group, and the two experimental groups. The mice were subjected to a boost injection using 200 μL of the second CII emulsion on the 21st day after the initial immunization, so as to induce the occurrence of RA. In addition, the rats of the normal control group were injected with an adjuvant solution (in PBS).
After completion of the boost injection, the respective mouse in the comparative group was intraperitoneally injected with 100 μL of 1% HA, the respective mouse in the experimental group 1 was intraperitoneally injected with 100 μL of the EGF solution (containing 20 μg/g EGF) prepared in section C of Example 1, the respective mouse in the experimental group 2 was intraperitoneally injected with 100 μL of the mixture solution (containing 20 μg/g EGF) prepared in section C of Example 1. Each mouse was administered once daily for a total period of 20 days.
After completion of the evaluation of RA severity as described in section C of this example, the mice in each group were sacrificed by virtue of 95% CO2 asphyxiation, and the knee joint tissue of the hind leg and the sole tissue were obtained from each mouse carcass. The knee joint tissue of the hind leg of each mouse was subjected to histological sectioning, hematoxylin-eosin staining, and microscopic observation in sequence according to the methods described in section F of Example 1.
100 mg of the sole tissue of each mouse obtained in section D of this example was subjected to a freezing treatment with liquid nitrogen, followed by grinding. The resultant ground tissue was mixed with 1 mL of a tissue lysis buffer (Gold Biotechnology, Inc., Cat. No. GB-181-100) (containing protease inhibitor cocktail), followed by determining the contents of TNF-α, IL-1β, IL-6, IL-17A, IFN-γ, and IL-8 respectively using a TNF-α ELISA kit (BioLegend, Cat. No. 430904), an IL-1β ELISA kit (BioLegend, Cat. No. 432604), an IL-6 ELISA kit (BioLegend, Cat. No. 431304), an IL-17A ELISA kit (BioLegend, Cat. No. 432504), an IFN-γ ELISA kit (BioLegend, Cat. No. 430807), and an IL-8 ELISA kit (MyBioSource, Cat. No. MBS261967) in accordance with the manufacturer's instructions.
The data thus obtained were analyzed according to the method described in section 1 of “General Procedures”.

[2] = system: articular cartilage of the right knee joint, MIA-induced OA; test: Histopathologic analysis of right knee joint tissue (modified Mankin scoring), MIA-induced OA; format: in vivo, Sprague Dawley rats; settings: rats; for morphological observation of articular cartilage of the right knee joint: 30 μL intraarticular on day 3 and day 14, day 28, versus pathological control, data not shown
Procedure: The Sprague Dawley rats were divided into five groups, including one normal control group, one pathological control group, one comparative group, and two experimental groups (i.e., experimental groups 1 to 2) (n=5 rats in each group).
The right knee joint of the respective rat in the pathological control group, the comparative group, and the experimental groups 1 and 2 was intraarticularly injected with 30 μL of a monosodium iodoacetate (MIA) solution (50 g/L, in 0.9% normal saline). In addition, the right knee joint of the respective rat in the normal control group was intraarticularly injected with 30 μL of 0.9% normal saline. […]
The tissue section was subjected to hematoxylin-eosin staining, and Safranin 0 and fast green staining using a staining protocol well-known to those skilled in the art, and was then observed under an optical microscope (Olympus, CKX41) at a magnification of 200×. Two areas of the respective tissue section were randomly selected and photographed, and pathological changes (such as cartilage damage, chondrocyte loss, and proteoglycan loss) in the respective tissue section was assessed according to the modified Mankin scoring system described in Pauli C. et al. (2012), Osteoarthritis Cartilage, 20:476-485. The degrees of cartilage damage, chondrocyte loss, and proteoglycan loss were scored on a scale from 1 to 5. […]
The data thus obtained were analyzed according to the method described in section 1 of the “General Procedures”.

Substance | content of IL-1β ([1]; FIG. 8) | content of IL-6 ([1]; FIG. 8) | content of TNF-α ([1]; FIG. 8) | content of IFN-γ ([1]; FIG. 9) | content of IL-8 ([1]; FIG. 9) | content of IL-17A ([1]; FIG. 9) | scale of OA (modified Mankin scoring, scale 1 to 5) ([2]; 30 μL intraarticular on day 3 and day 14, day 28, FIG. 2) | morphological observation of articular cartilage of the right knee joint [2]
EGF: Epidermal growth factor (Cat. No. 02-108, Joycom Bio-chem) dissolved in PBS, 20 μg/g EGF; given to experimental group 1 (NSDSECPLSHDGYCLHDGVCMYIEALDKYACNCVVGYIGERCQYRDLKWWELR; UniProt P01133 971-1023, looked up) | apparently or significantly lower than those determined in the pathological control group | apparently or significantly lower than those determined in the pathological control group | apparently or significantly lower than those determined in the pathological control group | apparently or significantly lower than those determined in the pathological control group | apparently or significantly lower than those determined in the pathological control group | apparently or significantly lower than those determined in the pathological control group | significantly lower than that determined in the pathological control group | fewer cracks and a smoother surface, and less chondrocyte and proteoglycan loss were observed
hyaluronic acid [HA, reference compound] |  |  |  |  |  |  |  | fewer cracks and a smoother surface, and less chondrocyte and proteoglycan loss were observed
